Experimental data as given in US20120323009A1, “PRODUCTION METHOD OF REDUCED PYRROLOQUINOLINE QUINONE” (MITSUBISHI GAS CHEMICAL COMPANY, INC., priority 2010, published 2012).

How the values were obtained:
[1] = Non-patent document 3; cited from earlier work
[2] = Storage test of reduced PQQ (oxidation to oxidized PQQ); type: physicochemical
Procedure: In Examples and Comparative Examples, the UV measurements were performed on a HITACHI U-2000 Spectrophotometer.
In 500 g of water, […] of pyrroloquinoline quinone disodium was dissolved to a concentration of 0.01 mol/L. In 100 g of water, 3.51 g of L-ascorbic acid was dissolved to a concentration of 0.2 mol/L.
20 g of the pyrroloquinoline quinone disodium solution mentioned above having a concentration of 0.01 mol/L (pH 3.5) was mixed with 20 g of an L-ascorbic acid solution having a concentration of 0.2 mol/L at room temperature. The molar ratio of L-ascorbic acid is 20 with respect to pyrroloquinoline quinone. The pH of the solution was 2 as measured with a pH test strip. The mixed solution was allowed to react at room temperature overnight (pH 2). After the reaction, a solid of the reduced form was precipitated. Under this condition, it is believed that at least 15-fold moles of L-ascorbic acid is present, even allowing for the amounts consumed in the reduction reaction and in air oxidization.
The solid of the reduced form obtained in Example 6 was separated through centrifugation. The supernatant was removed, and the solid was washed with water. This process removed L-ascorbic acid. An aqueous sodium hydroxide solution was added thereto to adjust the value of pH to 7. All the reduced form was converted to the oxidized form in 30 minutes.
1 g of a pyrroloquinoline quinone disodium solution having a concentration of 0.01 mol/L (pH 3.5) was mixed with 1 g of an L-ascorbic acid solution having a concentration of 0.014 mol/L. When 1 g of this mixed solution was transferred to a 15-ml container and brought into contact with air, the solution included 14% of oxidized PQQ (pH 3). After this oxidized PQQ-containing reduced PQQ was left at 30° C. for one week, 18% of oxidized PQQ was included.

## O=C(O)c1cc(C(=O)O)c2c(n1)c(O)c(O)c1cc(C(=O)O)[nH]c12 [reduced PQQ, reduced pyrroloquinoline quinone]
[1]
  antioxidative activity compared with ascorbic acid: greater antioxidative activity than that exhibited by ascorbic acid
  antioxidative activity compared with conventional PQQ: extremely higher antioxidative activity than that exhibited by the conventional PQQ
[2]; Comparative Example 3: solid washed with water, L-ascorbic acid removed, pH adjusted to 7 with aqueous sodium hydroxide
  time in which all the reduced form was converted to the oxidized form: 30 min
[2]; Example 7: aqueous reaction solution, pH 2, at least 15-fold moles of L-ascorbic acid present, stored at room temperature for one week
  state of the reduced form after storage: maintained in the reduced state
[2]; Example 8: 0.01 mol/L PQQ disodium + 0.014 mol/L L-ascorbic acid mixed solution, pH 3, brought into contact with air, before storage
  oxidized PQQ included: 14%
[2]; Example 8: same solution after being left at 30° C. for one week
  oxidized PQQ included: 18%
